Measurements from publication PMC5556071, “ATR inhibition facilitates targeting of leukemia dependence on convergent nucleotide biosynthetic pathways” (Nature Communications, 2017).

What was measured:
[1] = test system: CEM cells; assay: Proliferation assay (CellTiter-Glo, 72 h); type: cell-based, human
Protocol: (§1) Cells were plated in 384-well plates (1000 cells/well for suspension cell lines and 500 cells/well for adherent cell lines in 30 µl volume). Drugs were serially diluted to the desired concentrations and an equivalent volume of DMSO was added to vehicle control. Ten microliter of the 4× diluted drugs were added to each well. Following 72 h incubation, ATP content was measured using CellTiter-Glo reagent according to manufacturer’s instructions (Promega, CellTiter-Glo Luminescent Cell Viability Assay), and analyzed by SpectraMax luminometer (Molecular Devices). IC50 values, concentrations required to inhibit proliferation by 50% compared to DMSO treated cells, were calculated using Prism 6.0 h (Graphpad Software).

[2] = test system: dCK pS74; assay: Phosphoproteomic nLC-MS/MS analysis of dCK phosphorylation; type: cell-based, human; set-up: key to dCK pS74: ↓: partial decrease/inhibition; ↓↓↓: nearly complete inhibition; ↑: increase; ⟷: no change
Protocol: against both the Uniprot human FASTA database and a decoy database of the Uniprot human database which read from C-terminus to N-terminus; Percolator was used to filter the data at 1% FDR at both the peptide and […]
Phosphoproteomic analyses. CCRF-CEM cells were prepared same as the asynchronous CEM cells total protein digests above, except that a total of 7.5 mg total protein from 1 x 10^8 cells was collected per treatment condition for phosphoproteomic analysis. tC18 Sep-Pak cartridges (Waters) were used for peptide desalting and Pierce Quantitative Colorimetric Peptide Assay was performed prior to phosphopeptide enrichment.
Hydrophilic interaction chromatography (HILIC) and immobilized metal affinity chromatography (IMAC) were performed same as previously described4. Data dependent nLC-MS/MS was performed on Thermo QExactive Plus same as above. […] Identified phosphopeptides were manually quantified by area-based extracted ion chromatograms of the monoisotopic peak. […]

[3] = test system: CHEK1 pS345; assay: Western blot of replication stress marker in CEM cells; type: cell-based, human
Protocol: Cells were lysed using RIPA buffer supplemented with protease (ThermoFisher, 78,430) and phosphatase (ThermoFisher, 78,420) inhibitors, scraped, sonicated, and centrifuged (20,000 × g at 4 °C). Protein concentrations in the supernatant were determined using the Micro BCA Protein Assay kit (Thermo), and equal amounts of protein were resolved on pre-made Bis-Tris polyacrylamide gels (Life Technologies). Primary antibodies: pS345 CHEK1 (Cell signaling, #2348 L, 1:1000), pT68 CHEK2 (Cell signaling, #2197 S, 1:1000), pS139 H2A.X (Millipore, 05-636, 1:1000), clvd. Casp8 (Cell signaling, #8592, 1:1000), clvd. Casp9 (Cell signaling, #9502, 1:1000), clvd. Casp3 (Cell signaling, #9662, 1:1000), clvd. PARP (Cell signaling, #5625 P, 1:1000), and anti-actin (Cell Signaling Technology, 9470, 1:10,000). Primary antibodies were stored in 5% BSA (Sigma-Aldrich) and 0.1% NaN3 in TBST solution. Anti-rabbit IgG HRP-linked (Cell Signaling Technology, 7074, 1:2500) and anti-mouse IgG HRP-linked (Cell Signaling Technology, 7076, 1:2500) were used as secondary antibodies. Chemiluminescent substrates (ThermoFisher Scientific, 34,077 and 34,095) and autoradiography film (Denville) were used for detection.

[4] = test system: p185BCR-ABL Arf–/– cells; assay: Proliferation assay (CellTiter-Glo, 72 h); type: cell-based; conditions: Mus musculus
Protocol: as §1

[5] = test system: p185BCR-ABL Arf–/– pre-B-ALL; assay: Systemic primary pre-B-ALL leukemia model, survival, bioluminescence, body weight; type: in vivo
Protocol: For development of systemic leukemia model, C57Bl/6 female mice were injected intravenously with 50,000 firefly luciferase expressing p185^BCR-ABL Arf ^−/− pre-B-ALL cells[12], [31]. The leukemic burden was monitored using bioluminescence imaging. All drug treatments were performed in an oral formulation consisting of PEG-200, Transcutol, Labrasol and Tween-80 blended in a ratio of 5:3:1:1. The oral gavage volume was 50 µl per dose (a detailed description is available in the Supplementary Information).
All C57BL/6 female mice were purchased from the UCLA Radiation Oncology breeding colony. […] For oral administration, single agent or combination of drugs were solubilized in a formulation consisting of the following: PEG-200: Transcutol: Labrasol: Tween-80 mixed in 5:3:1:1 ratio. For i.p. administration, the drugs were solubilized in PEG-400 and 1 mM Tris-HCl in a 1:1 (v:v) ratio. Dasatinib (LC Laboratories) was solubilized in 80 mM citric acid (pH 3.1) and was administered at a dose of 10 mg kg^–1 by oral gavage. 2 × 10^5 luciferase expressing p185^BCR-ABL Arf ^−/− pre-B-ALL cells were injected intravenously into C57BL/6 female mice for leukemia induction. […] The mice were observed daily and those that became moribund during the trials, (paralysis of hind limbs, significant body weight loss) were sacrificed immediately.
Mice were anesthetized with 2% isoflurane followed by intraperitoneal injection of 50 μl (50 mg ml^−1) substrate D-luciferin (Sigma, #L9504). The mice were imaged with the IVIS 100 Bioluminescence Imaging scanner 10 min after luciferin administration. All mice were imaged in groups of five with 1-minute exposure time, and the images were acquired at low binning.

Row | Compound | IC50 [1] | decrease in dCK pS74 (fold) ([2]; VE-822-treated leukemia cells) | dCK pS74 ([2]; summary Fig. 2g, CEM cells) | CHEK1 pS345 induced by RNR inhibition ([3]; 0.5 h time point) | CHEK1 pS345 induced by RNR inhibition ([3]; 4 h time point) | CHEK1 pS345 levels ([3]; CEM cells, VE-822 1 µM, 24 h) | IC50 [4] | efficacy in vivo of VE-822 alone ([5]; VE-822 40 mg kg–1 once daily) | time by which all treated mice died of leukemia ([5]; after inoculation, VE-822 40 mg kg–1 once daily) | Median survival ([5]; after treatment initiation, 40 mg kg–1 day–1 VE-822, n = 6)
1 | NC(=S)N/N=C/c1ncccc1N [3-AP] | 1060 nM | – | – | – | – | – | – | – | – | –
2 | CNCc1ccc(-c2cc(-c3nc(-c4ccc(S(=O)(=O)C(C)C)cc4)cnc3N)on2)cc1 [VE-822] | – | two-fold | ↓ | abrogated | partially inhibited | reduced | ~300 nM | only marginally efficacious | ≤ 38 days | 32.5 days
